Patent US20070244060A1, “Therapeutic Agent for Autoimmune Disease” (priority 2003, published 2007)

Experiments:
Assay type in all cases: cell-based, human
synoviocytes = assay: Apoptosis induction in synoviocytes, nuclear condensation by Hoechst 33258 DNA staining; settings: FIG. 3B
Method: Then, synoviocytes were seeded at 2500 each to an eight-well Lab-Tek Chamber from the Nunc Company and were incubated for 24 hours in an incubator under 5% CO2 at 37° C. 67 nM siRNA was thereafter introduced into the synoviocytes using TransIT-TKO transfection reagent from the Miru Bio Corporation. After additional incubation for 48 hours in an incubator under 5% CO2 at 37° C., 50 μg/mL tunicamycin was added, followed by incubation for 48 hours under the same conditions. The cells were then fixed and nuclear condensation was confirmed by DNA staining with Hoechst 33258.

rheumatoid synoviocytes = assay: WST-8 assay of proliferation activity of rheumatoid synoviocytes after siRNA treatment; settings: 96 hours after siRNA treatment; anti-GFP siRNA negative control = 100; FIG. 3A
Method: The experiments were carried out as follows. Rheumatoid synoviocytes were seeded at 160 each into a 96-well, flat-bottom plate from the Falcon Co. After 24 hours, treatment was carried with anti-Synoviolin siRNA or anti-GFP siRNA, and the proliferation activity was investigated after an additional 96 hours. The GFP was used in this case as a negative control. The degree of cell proliferation was measured using a WST-8 assay from Dojindo Laboratories.

[1] = system: rheumatoid synoviocytes (RA); assay: ER stress-inducible apoptosis, ssDNA Apoptosis ELISA, rheumatoid synoviocytes; settings: RA synoviocytes (5 cases), 24 hours, FIG. 5
Method: (§1) The experiments were carried out as follows. […] Endoplasmic reticulum stress-inducible apoptosis was induced using tunicamycin at concentrations of 10, 30, and 100 μg/mL. Apoptosis was quantitated using the ssDNA Apoptosis ELISA kit from Chemicon International, Inc.

[2] = system: osteoarthritis synoviocytes (OA); assay: ER stress-inducible apoptosis, ssDNA Apoptosis ELISA, osteoarthritis synoviocytes; settings: OA synoviocytes (5 cases), 24 hours, FIG. 5
Method: as §1

Substance | apoptosis induction in synoviocytes, co-use of siRNA with tunicamycin (synoviocytes; 67 nM siRNA 48 hours, then 50 μg/mL tunicamycin 48 hours) | proliferation activity of rheumatoid synoviocytes (GFP=100) (rheumatoid synoviocytes) | apoptosis induction in synoviocytes (synoviocytes; 50 μg/mL tunicamycin, 48 hours) | apoptosis (ssDNA Apoptosis ELISA) ([1]; tunicamycin 10 μg/mL) | apoptosis (ssDNA Apoptosis ELISA) ([1]; tunicamycin 30 μg/mL) | apoptosis (ssDNA Apoptosis ELISA) ([1]; tunicamycin 100 μg/mL) | apoptosis (ssDNA Apoptosis ELISA) ([2]; tunicamycin 10 μg/mL) | apoptosis (ssDNA Apoptosis ELISA) ([2]; tunicamycin 30 μg/mL) | apoptosis (ssDNA Apoptosis ELISA) ([2]; tunicamycin 100 μg/mL)
anti-Synoviolin siRNA: small interfering RNA against the Synoviolin gene; sense CGUUCCUGGUACGCCGUCAUU (SEQ ID NO: 1), antisense UGACGGCGUACCAGGAACGUU (SEQ ID NO: 2) (listed as RNA, chemistry not given here) | increased | about 60% | – | – | – | – | – | – | –
tunicamycin | – | – | caused apoptosis induction | 0.73±0.30 | 0.84±0.35 | 0.81±0.28 | 2.18±1.19 | 2.76±1.84 | 3.65±2.53
